From patent US20210283117A1, “PROPHYLACTIC OR THERAPEUTIC AGENT FOR PROSTATE CANCER” (KEIO UNIVERSITY, priority 2018, published 2021)

Legend:
DU145 cell lines [1] = experiment: Antitumor effect on CRPC model mice, tumor volume; format: in vivo
Source text: 1×10^6 metastatic CRPC cell lines (DU145 cell lines) were subcutaneously inoculated to castrated male nude mice (BALB/C) to prepare subcutaneous tumor model mice. When the tumor size reached about 100 mm^3, the subcutaneous tumor model mice (CRPC model mice) were divided into three groups (control group, cabazitaxel administration group and cloperastine administration group). To the cloperastine administration group (n=5), a cloperastine hydrochloride (manufactured by Sigma-Aldrich Co. LLC) was orally administered daily at a dose of 12.5 mg/kg (body weight) per day in terms of cloperastine (“cloperastine administration group” in FIG. 7A). To the cabazitaxel administration group (n=5), cabazitaxel (manufactured by Carbosynth Limited) was intraperitoneally administered in a single dose of 10 mg/kg (body weight) (“cabazitaxel administration group” in FIG. 7A). On the other hand, any of the cloperastine hydrochloride and cabazitaxel was not administered to the control group (n=5) (control group in FIG. 7A).
The 1×10^6 DU145CR cell lines established in Example 5 were subcutaneously inoculated to castrated male nude mice (BALB/C) to prepare subcutaneous tumor model mice (cabazitaxel-resistant CRPC mice). When the tumor size reached about 100 mm^3, the subcutaneous tumor model mice were divided into three groups (control group, cabazitaxel administration group and cloperastine administration group). To the cloperastine administration group (n=5), a cloperastine hydrochloride (manufactured by Sigma-Aldrich Co. LLC) was orally administered daily at a dose of 12.5 mg/kg (body weight) per day in terms of cloperastine (“cloperastine administration group” in FIG. 7B). […] For the CRPC model mice and the cabazitaxel-resistant CRPC mice, tumor volumes were measured and an average value was calculated immediately after oral administration of the cloperastine hydrochloride (day 0) and 4 days, 8 days, 12 days and 16 days after the oral administration.

DU145 cell lines [2] = experiment: Ki67 immunohistological staining; format: cell-based; details: 10 μM, 24 hours, vs culture without cloperastine
Method: (§1) For confirming that the cloperastine species has a cell growth suppressive effect and an apoptosis inducing effect on CRPC and cabazitaxel-resistant CRPC, metastatic CRPC cell lines (DU145 cell lines and PC3 cell lines) were cultured in the presence of the cloperastine species, and analysis was performed by an immunohistological staining method using an antibody to a cell growth marker (Ki67), and a TUNEL (TdT-mediateddUTPnickendlabeling) method.
(§2) DU145 cell lines and DU145CR cell lines were cultured on 96-well plates, respectively, for 24 hours, and to a culture solution, a cloperastine hydrochloride (manufactured by Sigma-Aldrich Co. LLC) was added to 10 μM. The cell lines were further cultured for 24 hours, and the cells were then fixed with 4% paraformaldehyde. The fixed cells were subjected to blocking treatment with a 1% BSA (bovine serum albumin) solution, and primary antibody reaction treatment with a Ki67 antibody (manufactured by Dako Company) was performed overnight at 4° C. […] The immunohistological-stained cell sample was observed under a phase-contrast microscope (see FIG. 8A), and the ratio of Ki67-positive cells was calculated. […] The cell sample stained by the TUNEL method was observed under a phase-contrast microscope (see FIG. 9A), and the ratio of TUNEL-positive cells (cells undergoing apoptosis) was calculated.

DU145CR cell lines [3] = experiment: Ki67 immunohistological staining; format: cell-based; details: 10 μM, 24 hours, vs culture without cloperastine
Method: as §1, §2

DU145CR cell lines [4] = experiment: Cell growth suppressive effect on cabazitaxel-resistant prostate cancer cell lines (WST-1), Example 7; format: cell-based; details: cloperastine 0.1, 1, 10 μM, vs culture without cloperastine
Method: (§3) DU145 cell lines and PC3 cell lines (these cell lines were obtained from ATCC [American Type Culture Collection]) were cultured on a 96-well plate for 24 hours. […] As a control, an experiment was also conducted in which DU145 cell lines and PC3 cell lines were cultured in a culture solution free of a cloperastine hydrochloride.
(§4) For confirming that the cloperastine species has a cell growth suppressive effect on enzalutamide-resistant prostate cancer and cabazitaxel-resistant prostate cancer, enzalutamide-resistant prostate cancer cell lines (C4-2AT6 cell lines) and cabazitaxel-resistant prostate cancer cell lines (DU145CR cell lines) were used to analyze the cell growth property in the presence of cloperastine species in accordance with the method described in Example 2.

DU145 cell lines [5] = experiment: Cell growth suppressive effect, number of living cells (Premix WST-1), Example 2; format: cell-based; details: cloperastine 0.1, 1, 10 μM, 24 hours, vs culture without cloperastine
Method: (§5) For confirming that the cloperastine species has a cell growth suppressive effect on metastatic CRPC, metastatic CRPC cell lines (DU145 cell lines and PC3 cell lines) were cultured in the presence of the cloperastine species, and the cell growth property was analyzed.
as §3

PC3 cell lines [6] = experiment: as above; format: cell-based; details: cloperastine 0.1, 1, 10 μM, 24 hours, vs culture without cloperastine
Method: as §5, §3

DU145 cell lines [7] = experiment: TUNEL method (apoptosis); format: cell-based; details: 10 μM, 24 hours, vs culture without cloperastine
Method: as §1, §2

DU145CR cell lines [8] = experiment: TUNEL method (apoptosis); format: cell-based; details: 10 μM, 24 hours, vs culture without cloperastine
Method: as §1, §2

DU145 cell lines [9] = experiment: EMT-related gene mRNA expression, quantitative PCR; format: cell-based; details: 10 μM cloperastine, 24 hours, vs control group
Method: (§6) For confirming that the cloperastine species has a suppressive effect on EMT in metastatic CRPC cells, metastatic CRPC cell lines (DU145 cell lines and PC3 cell lines) were cultured in the presence of the cloperastine species, and the gene expression profiles of EMT-related factors were analyzed.
(§7) DU145 cell lines and PC3 cell lines were cultured for 24 hours in the presence of 10 μM cloperastine or without cloperastine (cloperastine treatment group and control group, respectively), and mRNA was then extracted with “RNeasy Mini kit” (manufactured by QIAGEN Company). From the extracted mRNA, cDNA was synthesized with “PrimeScript RT reagent Kit” (manufactured by Takara Bio Inc.). For analyzing the mRNA expression levels of genes encoding six kinds of factors (E-cadherin, vimentin, “Zinc finger protein SNAI1”, “Zinc finger protein SNAI2”, “Zinc finger E-box-binding homeobox 1” and “Zinc finger E-box-binding homeobox 2”) (CDH1 gene, VIM gene, SNAI1 gene, SNAI2 gene, ZEB1 gene and ZEB2 gene, respectively), quantitative PCR analysis was performed with the primer and TaqMan probe sets (TaqMan Gene Expression Assays) (manufactured by Applied Biosystems Company) shown in Table 1 below, and CFX96 Real-Time System (manufactured by Bio-Rad Laboratories, Inc).

PC3 cell lines [10] = experiment: EMT-related gene mRNA expression, quantitative PCR; format: cell-based; details: 10 μM cloperastine, 24 hours, vs control group
Method: as §6, §7

DU145CR cell lines [11] = experiment: Antitumor effect on cabazitaxel-resistant CRPC mice, tumor volume; format: in vivo
Source text: The 1×10^6 DU145CR cell lines established in Example 5 were subcutaneously inoculated to castrated male nude mice (BALB/C) to prepare subcutaneous tumor model mice (cabazitaxel-resistant CRPC mice). When the tumor size reached about 100 mm^3, the subcutaneous tumor model mice were divided into three groups (control group, cabazitaxel administration group and cloperastine administration group). To the cloperastine administration group (n=5), a cloperastine hydrochloride (manufactured by Sigma-Aldrich Co. LLC) was orally administered daily at a dose of 12.5 mg/kg (body weight) per day in terms of cloperastine (“cloperastine administration group” in FIG. 7B). To the cabazitaxel administration group (n=5), cabazitaxel (manufactured by Carbosynth Limited) was intraperitoneally administered in a single dose of 10 mg/kg (body weight) (“cabazitaxel administration group” in FIG. 7B). On the other hand, any of the cloperastine hydrochloride and cabazitaxel was not administered to the control group (n=5) (“control group” in FIG. 7B). For the CRPC model mice and the cabazitaxel-resistant CRPC mice, tumor volumes were measured and an average value was calculated immediately after oral administration of the cloperastine hydrochloride (day 0) and 4 days, 8 days, 12 days and 16 days after the oral administration.

DU145CR cell lines [12] = experiment: Antitumor effect by use in combination with cabazitaxel, cabazitaxel-resistant CRPC mice, tumor volume; format: in vivo
Source text: The 5×10^6 DU145CR cell lines established in Example 5 were subcutaneously inoculated to castrated male nude mice (BALB/C) to prepare subcutaneous tumor model mice (cabazitaxel-resistant CRPC mice). When the tumor size reached about 100 mm^3, the subcutaneous tumor model mice were divided into four groups (control group, cabazitaxel administration group, cloperastine administration group and cloperastine+cabazitaxel administration group). To the cabazitaxel administration group (n=5), cabazitaxel (manufactured by Carbosynth Limited) was intraperitoneally administered in a single dose of 10 mg/kg (body weight). To the cloperastine administration group (n=5), a cloperastine hydrochloride (manufactured by Sigma-Aldrich Co. LLC) was orally administered daily at a dose of 12.5 mg/kg (body weight) per day in terms of cloperastine. To the cloperastine+cabazitaxel administration group (n=5), the cloperastine hydrochloride was orally administered daily at a dose of 12.5 mg/kg (body weight) per day in terms of cloperastine, and cabazitaxel (manufactured by Carbosynth Limited) was intraperitoneally administered in a single dose of 10 mg/kg (body weight). […] For the cabazitaxel-resistant CRPC mice, tumor volumes were measured and an average value was calculated immediately after oral administration (day 0) and 4 days, 8 days and 12 days after the oral administration.

C4-2AT6 cell lines = experiment: Cell growth suppressive effect on enzalutamide-resistant prostate cancer cell lines (WST-1), Example 7; format: cell-based; details: cloperastine 0.1, 1, 10 μM, vs culture without cloperastine
Method: as §3, §4

normal cells = experiment: Impact on growth of normal cells; format: cell-based; details: 1 μM
DU145 cell lines [13] = experiment: Invasion assay, xCELLigence, Matrigel basement membrane matrix; format: cell-based; details: 1 μM cloperastine hydrochloride, 0 to 48 hours, vs control group
Method: For confirming the anti-prostate cancer effect of the cloperastine species, DU145 cell lines were cultured in the presence of the cloperastine species, and the invasiveness of the cell lines was analyzed (invasion assay).
To a culture solution added to each well of Real-Time Cell Analyzer xCELLigence (manufactured by ACEA Biosciences Inc.), a cloperastine hydrochloride (manufactured by Sigma-Aldrich Co. LLC) was added to 1 μM, and 4.0×10^4 DU145 cell lines were added. The cell lines were then cultured, and the number of cells passing through a Matrigel basement membrane matrix (manufactured by Corning Incorporated) was measured over time (0 to 48 hours) (cloperastine treatment group). As a control for comparison, DU145 cell lines were cultured in a culture solution free of a cloperastine hydrochloride, and the same experiment was conducted (control group).

DU145 cell lines [14] = experiment: In vitro analysis of cabazitaxel resistance, number of living cells (WST-1); format: cell-based; details: Homo sapiens, DU-145, 24 hours
DU145CR cell lines [15] = experiment: In vivo analysis of cabazitaxel resistance, subcutaneous tumor model mice (DU145CR vs DU145); details: cabazitaxel 10 mg/kg single intraperitoneal dose; 12 days after administration
Source text: The 1×10^6 established DU145CR cell lines and 1×10^6 DU145 cell lines were subcutaneously inoculated to castrated male nude mice (BALB/C), respectively, to prepare subcutaneous tumor model mice (DU145CR mice and DU145 mice). When the tumor size reached about 200 mm^3, the subcutaneous tumor model mice were divided into four groups (DU145 mouse group, cabazitaxel administration DU145 mouse group, DU145CR mouse group and cabazitaxel administration DU145CR mouse group), and to the cabazitaxel administration DU145 mouse group and the cabazitaxel administration DU145CR mouse group (n=5 for each group), cabazitaxel (manufactured by Carbosynth Limited) was intraperitoneally administered in a single dose of 10 mg/kg (body weight). Cabazitaxel was not administered to the DU145 mouse group and the DU145CR mouse group (n=5 for each group). Immediately after oral administration (day 0) and 4 days, 8 days and 12 days after the oral administration, tumor volumes were measured and an average value was calculated.

DU145CR cell lines [16] = experiment: In vitro analysis of cabazitaxel resistance, number of living cells (WST-1); format: cell-based; details: 24 hours
Method: DU145CR cell lines were established by culturing DU145 cell lines in the presence of 0.2 nM cabazitaxel (manufactured by Carbosynth Limited) for about 2 years while gradually increasing the cabazitaxel concentration to 3 nM.

## Clc1ccc([C@H](OCCN2CCCCC2)c2ccccc2)cc1 (racemic) [cloperastine, 1-{2-[(RS)-(4-chlorophenyl) (phenyl)methoxy]ethyl}piperidine]
DU145 cell lines [1]; 12.5 mg/kg per day oral, daily
  tumor volume vs control group: smaller than the tumor volume in the control group
DU145 cell lines [1]; cloperastine 12.5 mg/kg per day oral vs cabazitaxel 10 mg/kg single i.p.
  tumor volume decrease level vs cabazitaxel administration group: higher than the tumor volume decrease level in the cabazitaxel administration group
DU145 cell lines [2]
  ratio of Ki67-positive cells: lower ratio of Ki67-positive cells
DU145CR cell lines [3]
  ratio of Ki67-positive cells: lower ratio of Ki67-positive cells
DU145CR cell lines [4]
  number of living cells: significantly smaller number of living cells in a concentration-dependent manner
DU145 cell lines [5]
  number of living cells: significantly smaller number of living cells in a concentration-dependent manner
PC3 cell lines [6]
  number of living cells: significantly smaller number of living cells in a concentration-dependent manner
DU145 cell lines [7]
  ratio of TUNEL-positive cells: higher ratio of TUNEL-positive cells
DU145CR cell lines [8]
  ratio of TUNEL-positive cells: higher ratio of TUNEL-positive cells
DU145 cell lines [9]
  expression levels of mRNA encoding vimentin, SNAI1, SNAI2, ZEB1, ZEB2: all lower
PC3 cell lines [10]; PC3 (FIG. 2B)
  expression level of mRNA encoding E-cadherin: higher
PC3 cell lines [10]; PC3
  expression levels of mRNA encoding vimentin, SNAI1, SNAI2, ZEB1, ZEB2: all lower
DU145CR cell lines [11]; 12.5 mg/kg per day oral, daily
  tumor volume: considerably reduced the tumor volume
DU145CR cell lines [12]; cloperastine 12.5 mg/kg per day oral, day 12, p<0.001
  tumor volume vs control group: statistically significant difference between the cloperastine administration group and the control group
C4-2AT6 cell lines
  number of living cells: significantly smaller number of living cells in a concentration-dependent manner
Normal cells
  impact on growth of normal cells: no impact on growth of normal cells
DU145 cell lines [13]
  invasion of cells: significantly suppressed

## CO[C@H]1C(=O)[C@]2(C)[C@@H](OC)C[C@H]3OC[C@@]3(OC(C)=O)[C@H]2[C@H](OC(=O)c2ccccc2)[C@]2(O)C[C@H](OC(=O)[C@H](O)[C@@H](NC(=O)OC(C)(C)C)c3ccccc3)C(C)=C1C2(C)C [cabazitaxel]
DU145 cell lines [1]; cabazitaxel 10 mg/kg single intraperitoneal dose, day 16, p<0.01
  tumor volume vs control group: statistically significant difference between the cabazitaxel administration group and the control group
DU145 cell lines [14]
  IC50: 3.8 nM
DU145CR cell lines [15]
  tumor volume, cabazitaxel administration DU145CR mouse group vs cabazitaxel administration DU145 mouse group: about twice
DU145CR cell lines [11]; cabazitaxel 10 mg/kg single intraperitoneal dose
  tumor volume: hardly enabled suppression of an increase in tumor volume
DU145CR cell lines [12]; cabazitaxel 10 mg/kg single i.p., day 12, p>0.05
  tumor volume vs control group: no statistically significant difference
DU145CR cell lines [16]
  IC50: 11 nM
